Read-outs that look alike come from different tables or passages of the source. Bridge positions count the residues as written; N and C are the ends. Square brackets hold non-standard residues; d marks the D form. Peptide text beside a SMILES is read from it. Abu = CC[C@H](N)C(=O)O
Molecular target: porcine pancreatic elastase (Sus scrofa, UniProt P00772)
Test: Elastase inhibitory activity of peptides (AAApNA hydrolysis; IC50, Ki, residual activity)
Assay type: biochemical
Conditions: for IC50 / Residual activity of elastase: elastase 0.5 μM, AAApNA 1 mM
Method: The inhibition constants of various synthetic active peptide inhibitors (molecular scaffolds) against seine proteases were measured. The substrates N-succinyl-Ala-Ala-Pro-Phe-p-nitroaniline (AAPFpNA), Nα—Benzoyl-L-arginine-4-nitroaniline hydrochloride (BApNA) and N-succinyl-[…] (AAApNA) are used in competitive binding reaction to determine the inhibitory activities against α-chymotrypsin, bovine trypsin, and porcine pancreatic elastase, respectively. Experiments for α-chymotrypsin and bovine trypsin inhibition were measured in 20 mM CaCl2, 50 mM Tris-HCl buffer (pH 7.8), and that for porcine elastase inhibition was measured in 50 mM Tris-HCl buffer (pH 8.0). The concentration of the peptide was measured using optical density (OD) at 280 nm. The Michaelis constant (Km) of the enzyme hydrolysis substrate is calculated from the initial rate of substrate hydrolysis at 405 nm. The absorbance value of the substrate was measured at 405 nm after complete hydrolysis. All data were processed using nonlinear regression.
• (1) Added a total 198 μL of reaction buffer (20 mM CaCl2, 50 mM Tris-HCl (pH 8.0)) into the 96 well plate, followed by preheating at 37° C. for 15 min. Then added 2 μL of different concentrations of substrates (pNA, dissolved in DMSO), and mixed by centrifugation at 500 rpm for 1 min. Finally, the plate was incubated at 37° C. for 30 min, and the absorbance value at 405 nm was measured. In the 200 μL of reaction system, the final concentrations of pNA were 0, 0.025, 0.05, 0.075, 0.1, 0.125, 0.15, 0.175, and 0.2 mM, respectively. Make three repetitions for each concentration and plot the OD405 m value with pNA concentration to obtain the standard curve. • (2) Added a total 190 μL of reaction buffer (20 mM CaCl2, 50 mM Tris-HCl (pH 8.0)) and 8 μL of 4.375 μM elastase into the 96 well plate, followed by preheating at 37° C. for 5 min. Then added 2 μL of different concentrations of substrates (AAApNA, dissolved in DMSO), and mixed by centrifugation at 500 rpm for 1 min. Finally, the plate was incubated at 37° C. for 30 min, and the absorbance value at 405 nm was measured. In the 200 μL of reaction system, the final concentrations of AAApNA were 0, 0.125, 0.166, 0.2, 0.25, 0.33, 0.6, 0.75, and 1.25 mM, respectively. Make three repetitions for each concentration and plot the OD405 nm value with time to obtain the corresponding curve. Divide the slope of the curve by the slope of the standard curve and the enzyme concentration to obtain the initial velocity V0 (mM/(min*mM protein). Plot the initial velocity V0 with the concentration of substrate AAApNA using Prism software, and the Michaelis constant Km value of elastase hydrolyzing AAApNA was obtained.
• (1) Added a total 190 μL of different concentrations of peptides (ECs) against elastase and reaction buffer (20 mM CaCl2, 50 mM Tris-HCl buffer (pH 8.0)) into the pre-cold 96 well plate, followed by preheating at 37° C. for 5 min and centrifugated at 500 rpm for 1 min and allowed to stand for 4 minutes. Then added 8 μL of 12.5 μM elastase and incubated at 37° C. for 10 min and centrifugated at 500 rpm for 1 min and allowed to stand for 9 minutes. Finally, added 2 μL of 100 mM AAApNA, and mixed by centrifugation at 500 rpm for 1 min. The plate was incubated at 37° C. for 60 min, and the absorbance value at 405 nm was measured. Three repetitions were made, and only reaction buffer and substrate were added in the blank control as the minimum absorption value (Min OD405 nm); Only reaction buffer, enzyme and substrate were added in the negative control as the maximum absorption value (Max OD405 nm). • (2) In the 200 μL of reaction system, the final concentrations of elastase and AAApNA were 0.5 μM and 1 mM, respectively. • (3) Data statistics
Residual activity of enzyme (%)=(1−(Max OD405 nm−Sample OD405 nm)/(Max OD405 nm−Min OD405 nm))*100 […]

Chain of porcine pancreatic elastase (P00772 27-266): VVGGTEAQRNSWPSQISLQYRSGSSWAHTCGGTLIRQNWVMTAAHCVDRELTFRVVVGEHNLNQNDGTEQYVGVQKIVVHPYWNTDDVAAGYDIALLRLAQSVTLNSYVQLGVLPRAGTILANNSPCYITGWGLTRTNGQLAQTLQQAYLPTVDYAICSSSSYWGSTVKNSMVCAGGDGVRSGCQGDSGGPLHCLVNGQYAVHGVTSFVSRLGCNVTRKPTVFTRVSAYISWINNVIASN

**Q.** Which IC50 does the source give for `CC[C@H](C)[C@@H]1NC(=O)[C@H](CO)NC(=O)[C@H](C)NC(=O)[C@H]([C@@H](C)O)NC(=O)[C@@H](NC(=O)[C@@H](N)CC(C)C)CSSC[C@@H](C(=O)N[C@@H](CCCNC(=N)N)C(=O)O)NC(=O)[C@H](CCC(N)=O)NC(=O)[C@@H]2CCCN2C(=O)[C@@H]2CCCN2C1=O` [EC20] (H-LCTASIPPQCR-OH; disulfide 2-10; N-terminus and C-terminus assumed) here?
**A.** > 50 µM

**Q.** Which results are given for `CC[C@H](C)[C@@H]1NC(=O)[C@@H]2CCCN2C(=O)[C@@H]2CCCN2C(=O)[C@H]([C@@H](C)CC)NC(=O)[C@H](CO)NC(=O)[C@H](C)NC(=O)[C@H]([C@@H](C)O)NC(=O)[C@@H](NC(=O)[C@@H](N)C(C)C)CSSC[C@@H](C(=O)N[C@@H](CCC(N)=O)C(=O)O)NC1=O` [EC22] (H-VCTASIPPICQ-OH; disulfide 2-10; C-terminus assumed)?
**A.** IC50: 0.4 µM; Residual activity of elastase (peptide 0.001 μM): 100.1 ± 1.0%; Residual activity of elastase (peptide 0.01 μM): 99.8 ± 0.3%; Residual activity of elastase (peptide 0.1 μM): 92.0 ± 6.8%; Residual activity of elastase (peptide 0.2 μM): 70.8 ± 4.3%; Residual activity of elastase (peptide 0.4 μM): 51.6 ± 1.7%; Residual activity of elastase (peptide 1 μM): 20.4 ± 1.2%; Residual activity of elastase (peptide 10 μM): 2.4 ± 0.2%; Residual activity of elastase (peptide 100 μM): 0.0 ± 0.0%; Residual activity of elastase (peptide 1000 μM): −0.2 ± 0.2%; Ki (read-out: Ki): 0.11 µM

**Q.** How did the “Residual activity of elastase” value (peptide 0.001 μM) turn out when `CC[C@H](C)[C@H](N)C(=O)N[C@H]1CSSC[C@@H](C(=O)N[C@@H](CCC(N)=O)C(=O)O)NC(=O)[C@H]([C@@H](C)CC)NC(=O)[C@@H]2CCCN2C(=O)[C@@H]2CCCN2C(=O)[C@H]([C@@H](C)CC)NC(=O)[C@H](CO)NC(=O)[C@H](C)NC(=O)[C@H]([C@@H](C)O)NC1=O` [EC23] (H-ICTASIPPICQ-OH; disulfide 2-10; C-terminus assumed) was run?
**A.** 103.0 ± 2.2%

**Q.** And the “Residual activity of elastase” value (peptide 0.01 μM)?
**A.** 97.8 ± 4.8%

**Q.** And the “Residual activity of elastase” value (peptide 0.1 μM)?
**A.** 76.8 ± 3.1%

**Q.** And the “Residual activity of elastase” value (peptide 0.2 μM)?
**A.** 56.4 ± 2.9%

**Q.** And the “Residual activity of elastase” value (peptide 0.4 μM)?
**A.** 40.8 ± 2.0%

**Q.** What about the “Residual activity of elastase” value (peptide 0.6 μM) of the same compound?
**A.** 23.7 ± 0.2%

**Q.** And the “Residual activity of elastase” value (peptide 1 μM)?
**A.** 15.1 ± 0.9%

**Q.** What about the “Residual activity of elastase” value (peptide 10 μM) of the same compound?
**A.** 1.5 ± 0.3%

**Q.** What about the “Residual activity of elastase” value (peptide 100 μM) of the same compound?
**A.** −0.2 ± 0.1%

**Q.** And the “Residual activity of elastase” value (peptide 1000 μM)?
**A.** −0.2 ± 0.1%

**Q.** And the Ki (read-out: Ki against elastase)?
**A.** 0.07 µM

**Q.** How did the IC50 turn out when `CC(C)C[C@H](N)C(=O)N[C@H]1CSSC[C@@H](C(=O)N[C@@H](CCCNC(=N)N)C(=O)O)NC(=O)[C@H]([C@@H](C)O)NC(=O)[C@@H]2CCCN2C(=O)[C@@H]2CCCN2C(=O)[C@H](CC(N)=O)NC(=O)[C@H](CO)NC(=O)[C@H](C)NC(=O)[C@H]([C@@H](C)O)NC1=O` [EC28] (H-LCTASNPPTCR-OH; disulfide 2-10) was run?
**A.** > 50 µM

**Q.** Which results are given for `CC[C@H](C)[C@@H]1NC(=O)[C@@H]2CCCN2C(=O)[C@@H]2CCCN2C(=O)[C@H]([C@@H](C)CC)NC(=O)[C@H](CO)NC(=O)[C@H](C)NC(=O)[C@H]([C@@H](C)O)NC(=O)[C@@H](NC(=O)[C@@H](N)Cc2ccc(O)cc2)CSSC[C@@H](C(=O)N[C@@H](CCC(N)=O)C(=O)O)NC1=O` [EC29] (H-YCTASIPPICQ-OH; disulfide 2-10; C-terminus assumed)?
**A.** Residual activity of elastase (peptide 0.001 μM): 105.9 ± 2.2%; Residual activity of elastase (peptide 0.01 μM): 102.0 ± 2.9%; Residual activity of elastase (peptide 0.1 μM): 92.6 ± 2.7%; Residual activity of elastase (peptide 0.5 μM): 72.7 ± 4.4%; Residual activity of elastase (peptide 1 μM): 47.5 ± 0.7%; Residual activity of elastase (peptide 2 μM): 28.5 ± 0.4%; Residual activity of elastase (peptide 6 μM): 8.9 ± 0.4%; Residual activity of elastase (peptide 10 μM): 5.9 ± 0.4%; Residual activity of elastase (peptide 100 μM): 0.1 ± 0.1%; Residual activity of elastase (peptide 1000 μM): 0.1 ± 0.0%

**Q.** For `CC[C@H](C)[C@@H]1NC(=O)CNC(=O)[C@@H](N)CSSC[C@@H](C(=O)N[C@@H](CCC(N)=O)C(=O)O)NC(=O)[C@H]([C@@H](C)CC)NC(=O)[C@@H]2CCCN2C(=O)[C@@H]2CCCN2C(=O)[C@H]([C@@H](C)CC)NC(=O)[C@H](CO)NC(=O)[C@H](C)NC(=O)[C@H]([C@@H](C)O)NC(=O)[C@H](C)NC1=O` [EC30] (H-CGIATASIPPICQ-OH; disulfide 1-12), which IC50 is on record?
**A.** > 50 µM

**Q.** Which IC50 does the source give for `CC[C@@H]1NC(=O)[C@H]([C@@H](C)CC)NC(=O)CNC(=O)[C@@H](N)CSSC[C@@H](C(=O)N[C@@H](CCC(N)=O)C(=O)O)NC(=O)[C@H]([C@@H](C)CC)NC(=O)[C@@H]2CCCN2C(=O)[C@@H]2CCCN2C(=O)[C@H]([C@@H](C)CC)NC(=O)[C@H](CO)NC(=O)[C@H](C)NC(=O)[C@H]([C@@H](C)O)NC1=O` [EC31] (H-CGI[Abu]TASIPPICQ-OH; disulfide 1-12) here?
**A.** > 50 µM

**Q.** `CC[C@H](C)[C@@H]1NC(=O)CNC(=O)[C@@H](N)CSSC[C@@H](C(=O)N[C@@H](CCC(N)=O)C(=O)O)NC(=O)[C@H]([C@@H](C)CC)NC(=O)[C@@H]2CCCN2C(=O)[C@@H]2CCCN2C(=O)[C@H]([C@@H](C)CC)NC(=O)[C@H](CO)NC(=O)[C@H](C)NC(=O)[C@H]([C@@H](C)O)NC(=O)[C@H](CO)NC1=O` [EC34] (H-CGISTASIPPICQ-OH; disulfide 1-12) was tested. Which IC50 did it give?
**A.** > 50 µM

**Q.** How did the IC50 turn out when `CC[C@H](C)[C@@H]1NC(=O)CNC(=O)[C@@H](N)CSSC[C@@H](C(=O)N[C@@H](CCC(N)=O)C(=O)O)NC(=O)[C@H]([C@@H](C)CC)NC(=O)[C@@H]2CCCN2C(=O)[C@@H]2CCCN2C(=O)[C@H]([C@@H](C)CC)NC(=O)[C@H](CO)NC(=O)[C@H](C)NC(=O)[C@H]([C@@H](C)O)NC(=O)[C@H](Cc2ccccc2)NC1=O` [EC36] (H-CGIFTASIPPICQ-OH; disulfide 1-12) was run?
**A.** > 50 µM

**Q.** With `CC[C@H](C)[C@@H]1NC(=O)CNC(=O)[C@@H](N)CSSC[C@@H](C(=O)N[C@@H](CCC(N)=O)C(=O)O)NC(=O)[C@H]([C@@H](C)CC)NC(=O)[C@@H]2CCCN2C(=O)[C@@H]2CCCN2C(=O)[C@H]([C@@H](C)CC)NC(=O)[C@H](CO)NC(=O)[C@H](C)NC(=O)[C@H]([C@@H](C)O)NC(=O)[C@H](CC(N)=O)NC1=O` [EC38] (H-CGINTASIPPICQ-OH; disulfide 1-12; C-terminus assumed) as the compound, how does the IC50 read?
**A.** 1 µM

**Q.** With `CC[C@H](C)[C@@H]1NC(=O)CNC(=O)[C@@H](N)CSSC[C@@H](C(=O)N[C@@H](CCC(N)=O)C(=O)O)NC(=O)[C@H]([C@@H](C)CC)NC(=O)[C@@H]2CCCN2C(=O)[C@@H]2CCCN2C(=O)[C@H]([C@@H](C)CC)NC(=O)[C@H](CO)NC(=O)[C@H](C)NC(=O)[C@H]([C@@H](C)O)NC(=O)[C@H](CCC(N)=O)NC1=O` [EC39] (H-CGIQTASIPPICQ-OH; disulfide 1-12) as the compound, how does the IC50 read?
**A.** > 50 µM

**Q.** How did the IC50 turn out when `CC[C@H](C)[C@@H]1NC(=O)CNC(=O)[C@@H](N)CSSC[C@@H](C(=O)N[C@@H](CCC(N)=O)C(=O)O)NC(=O)[C@H]([C@@H](C)CC)NC(=O)[C@@H]2CCCN2C(=O)[C@@H]2CCCN2C(=O)[C@H]([C@@H](C)CC)NC(=O)[C@H](CO)NC(=O)[C@H](C)NC(=O)[C@H]([C@@H](C)O)NC(=O)[C@H](Cc2c[nH]cn2)NC1=O` [EC40] (H-CGIHTASIPPICQ-OH; disulfide 1-12) was run?
**A.** > 50 µM

From patent US20230416329A1, “A PEPTIDE WITH DISULFIDE BONDS AND INHIBITORY ACTIVITY AGAINST SERINE PROTEASES, DERIVED HYBRID PEPTIDES THEREOF, AND USES THEREOF” (INSTITUTE OF MATERIA MEDICA , CHINESE ACADEMY OF MEDICAL …, priority 2020, published 2023)
